Data on five compounds can be found in US7666989B2 (priority 2003, dated 2010).

Series [1] has as its system HL-60 (human promyelocytic leukemia cell). Kind of series: MTT cytotoxicity, HL-60. Format: cell-based. As to conditions: 96 h, 4 days. The source says: (§1) Reagents: RPMI1640 is from GIBCO; MTT is from Bebco. Fetal bovine serum is purchased from Hangzhou SiJiQing Bioengineering Material Co. Ltd. (P. R. China).
(§2) Cell lines: COLO 205 (human colon cancer cell), NCI-H460 (human lung cancer cell), RPMI 8226 (human multiple myeloma cell), U251 (human brain glioma cell) are from ATCC, USA. HL-60 (human promyelocytic leukemia cell), MDA-MB-231, MDA-MB-435 (human breast cancer cell), SCLC (human small-cell lung cancer cell), H125 (human lung cancer cell) and PC-3 (human […] cancer cell).
(§3) The well-grown tumor cells were collected to prepare a cell suspension (1×10^4/ml) with RPMI 1640 medium containing 10% fetal bovine serum. The cell suspension was inoculated into a 96-well plate, 100 μL (containing 1000 tumor cells) per well. The plate was cultured in a 5% CO2 incubator at 37° C. for 24 hours, followed by addition of medicament.
(§4) A blank control and a positive control using 5-fluorouracil or adriamycin are employed in the experiment. […]
(§5) The supernatant was discarded. […] After gently shaking, the OD values were measured by a BIORAD 550 enzyme analyzer, with the detection wavelength being 540 nm and the reference wavelength being 450 nm.
(§6) Dose-response curves were generated by plotting with the cell inhibition rates and different concentrations of medicament, and the half inhibitory concentrations (IC50) were calculated.

The test system of series [2] is human brain glioma U251. The source says:
(§7) In this example, the animals used were BALB/c-nu nude mice, 6-8 weeks old. For each experiment, all animals were of the same sex.
(§8) Tumor cell lines: human brain glioma U251, human lung cancer cell line NCI-H460, human colon cancer cell line COLO205 were inoculated from in vitro culture into nude mice subcutaneously, the tumors were subcultured and kept.
(§9) Experimental Procedures: well-grown nude mice carrying well-grown tumors were selected and sacrificed by disjointing neck vertebra. The tumors were removed aseptically and were cut into pieces having a diameter of 2-3 mm by a scalpel. The pieces were inoculated into the axilla of nude mice subcutaneously by a needle. […] The length and width of tumors were measured by a vernier caliper. The animals were then grouped based their tumor sizes. Each group included seven to eight animals.
(§10) The length, width of the tumor and the body weight of the mice were measured twice per week. The tumor volume (TV) and relative tumor volume (RTV) were calculated. A graph indicating the changes of tumor size was plotted. At the end of this experiment, the tumors were taken out and weighed after the mice were sacrificed, and the inhibition rates of the medicament on tumor growth were calculated.
(§11) The formula for calculating tumor volume (TV) is: length×width^2÷2.
(§12) The formula for calculating relative tumor volume (RTV) is: Vt/Vo (wherein Vo is the TV value measured when the administration is started, Vt is the TV value measured after that).
(§13) T-test was used to determine the statistical difference of tumor weights, tumor volumes and RTV etc. between different groups of animal. The index used for evaluating the anti-tumor activity is the relative tumor growth rate T/C (%), the formula for which is: […]
(§14) The evaluation standard for efficacy:
(§15) T/C (%)>60 is ineffective;
(§16) T/C (%)≦60 and P<0.05 after statistical analysis is effective.
The Carmustine (Renmin Pharmaceuticals, Amino Acid Inc. Tianjin, P. R. China) was used as the positive control, 40 mg/kg, administered by intraperitoneal injection for once. CPT was given to four groups at the doses of 0.6 mg/kg, 1.7 mg/kg, 5.0 mg/kg, 15.0 mg/kg respectively, administered by intraperitoneal injection. The treatment included ten injections.

Series [3] concerns human lung cancer NCI-H460. Briefly: Growth of human lung cancer NCI-H460 xenograft in nude mice. Format: in vivo, BALB/c-nu nude mice. As to conditions: Cyclophosphamide 100 mg/kg i.p., then 80 mg/kg two weeks later. The procedure: The animals were then grouped based their tumor sizes. Each group included seven to eight animals.
as §14, §15
One additional injection was given at 80 mg/kg two weeks later. […] The treatment contained a total of ten injections.

For series [4], the system named is U251 (human brain glioma cell). Briefly: MTT cytotoxicity, U251. Format: cell-based. As to conditions: U-251, 96 h, 4 days.
Text: as §1, §2, §3, §4, §5, §6

Series [5] concerns COLO 205 (human colon cancer cell). Briefly: MTT cytotoxicity, COLO 205. As to conditions: Homo sapiens, 96 h, 4 days, read-out: IC50. Format: cell-based.
Text: as §1, §2, §3, §4, §5, §6

For series [6], the system named is MDA-MB-231 (human breast cancer cell). Kind of series: MTT cytotoxicity, MDA-MB-231. Format: cell-based. As to conditions: 96 h, 4 days.
Text: as §1, §2, §3, §4, §5, §6

The subject of series [7] is NCI-H460 (human lung cancer cell). Briefly: MTT cytotoxicity, NCI-H460. As to conditions: 96 h, 4 days. Format: cell-based.
Text: as §1, §2, §3, §4, §5, §6

The subject of series [8] is RPMI 8226 (human multiple myeloma cell). Kind of series: MTT cytotoxicity, RPMI 8226. Format: cell-based. As to conditions: Homo sapiens, 96 h, 4 days, read-out: IC50.
Text: as §1, §2, §3, §4, §5, §6

Series [9] deals with PC-3 (human cancer cell). Briefly: MTT cytotoxicity, PC-3. As to conditions: Homo sapiens, 96 h, 4 days. Format: cell-based.
Text: as §1, §2, §3, §4, §5, §6

For series [10], the system named is H125 (human lung cancer cell). Briefly: MTT cytotoxicity, H125. Format: cell-based. As to conditions: Homo sapiens, NCI-H125, 96 h, 4 days, read-out: IC50.
Text: as §1, §2, §3, §4, §5, §6

Series [11] relates to SCLC (human small-cell lung cancer cell). Briefly: MTT cytotoxicity, SCLC. As to conditions: Homo sapiens, 96 h, 4 days, read-out: IC50. Format: cell-based.
Text: as §1, §2, §3
A blank control and a positive control using 5-fluorouracil or adriamycin are employed in the experiment. The CPT samples have five concentrations, three parallel wells for each concentration. The cells were cultured in an incubator with 5% CO2 at 37° C. for 4 days. Then the culture medium was removed and 100 μL MTT solution (0.4 mg/ml in RPMI 1640) was added to each well. The plate was incubated at 37° C. for four additional hours.
The supernatant was discarded. 150 μl DMSO was added into each well in order to solubilize Fomazan granulates. After gently shaking, the OD values were measured by a BIORAD 550 enzyme analyzer, with the detection wavelength being 540 nm and the reference wavelength being 450 nm.
as §6

Series [12] deals with MDA-MB-435 (human breast cancer cell). Kind of series: MTT cytotoxicity, MDA-MB-435. As to conditions: Homo sapiens, 96 h, 4 days, read-out: IC50. Format: cell-based.
Text: as §1, §2, §3, §4, §5, §6

For series [13], the system named is human colon cancer COLO 205. As to conditions: COLO 205 xenograft, hydroxycamptothecin 1 mg/kg i.p. once per day 15 days, then further courses.
Text: as §7, §8, §9, §10, §11, §12, §13, §14, §15, §16
Injectable hydroxycamptothecin (trade name: Xi Su, Wuhan Lishizhen Pharmaceuticals Inc., Huangshi Lishizhen Pharmaceuticals Group, P. R. China) was used as positive control, administered by intraperitoneal injection at the dose of 1 mg/kg, once per day. The administration was terminated after 15 consecutive days of administration. […] A single administration of 80 mg/kg hydroxycamptothecin was further given after two weeks. CPT was given to three treatment groups at the doses of 1.7 mg/kg, 5.0 mg/kg, 15.0 mg/kg respectively by intraperitoneal injection, once per day. The treatment contained a total of 15 injections.

Where [14] appears, read: U251 xenograft, Carmustine 40 mg/kg i.p. once.

Converted amounts (≈) assume the structure as drawn. Marks after values point to notes of the source that are not given here.

In turn, `COc1cccc2c1C(=O)c1c(O)c3c(c(O)c1C2=O)C[C@@](O)(C(=O)CO)C[C@@H]3O[C@H]1C[C@H](N)[C@H](O)[C@H](C)O1` [Adr, Adriamycin] had an IC50 in [1] of 0.006 µg/mL (≈ 0.011 µM).
Take `O=NN(CCCl)C(=O)NCCCl` [Carmustine, reference compound]: in series [2] (setting [14]), the RTV worked out at 0.54 ± 0.29, the “T/C (%)” value is reported as 16.0%, the “Tumor volume (mm^3) End” value was 109 ± 78** mm^3 and the “Tumor weight” value was found to be 0.09 ± 0.06 g. Moreover, the “Tumor volume (mm^3) Start” value in series [2] (U251 xenograft, Carmustine 40 mg/kg i.p. once, baseline) amounted to 153 ± 35 mm^3. Also, in series [2] (U251 xenograft, Carmustine 40 mg/kg i.p. once, by tumor weight), the “Inhibition rate (%)” value was 93.0%. In addition, in series [2] (mouse, in vivo), the “Body Weight (g) End” value came out at 19.4 ± 2.1 g and the “Body Weight (g) Start” value turned out to be 22.8 ± 0.7 g.
For the compound `O=P1(N(CCCl)CCCl)NCCCO1` (stereo not shown) [Cyclophosphamide, reference compound], in series [3], the “Body Weight (g) End” value came to 16.1 ± 2.2 g, the RTV turned out to be 3.67 ± 2.15, the “T/C (%)” value was determined as 61.4% and the “Tumor volume (mm^3) End” value stood at 1121 ± 434 mm^3. The “Tumor weight” value in [3] came out at 0.96 ± 0.35 g. In [3] (baseline), the “Body Weight (g) Start” value came to 20.0 ± 1.3 g and the “Tumor volume (mm^3) Start” value is 179 ± 52 mm^3. In [3] (by tumor weight), the “Inhibition rate (%)” value stood at 40.4%.
On to `O=c1[nH]cc(F)c(=O)[nH]1` [Fu, 5-fluorouracil, reference compound], for which the IC50 was 0.981 ± 0.077 µg/mL (≈ 7.54 µM) in series [4]; 0.826 ± 0.051 µg/mL (≈ 6.35 µM) in series [5]; 0.318 ± 0.055 µg/mL (≈ 2.44 µM) in series [6]; 0.566 ± 0.016 µg/mL (≈ 4.35 µM) in series [7]; below 0.1 µg/mL in series [8]; 4.93 ± 0.753 µg/mL (≈ 37.9 µM) in series [9]. For the same compound, the IC50 in series [10] was 0.138 ± 0.031 µg/mL (≈ 1.06 µM); in [11] it was 0.617 ± 0.0257 µg/mL (≈ 4.74 µM); in [12], 0.199 ± 0.138 µg/mL (≈ 1.53 µM).
As for `CC[C@@]1(O)C(=O)OCc2c1cc1n(c2=O)Cc2cc3cc(O)ccc3nc2-1` [Hydroxycamptothecin, hydroxycamptothecin, reference compound], in series [13], the “Body Weight (g) End” value stood at 21.0 ± 2.5 g, the RTV worked out at 3.92 ± 1.91, the “T/C (%)” value was 47.2% and the “Tumor volume (mm^3) End” value was 845 ± 66** mm^3. Besides, the “Tumor weight” value in series [13] was determined as 0.66 ± 0.26 g. Besides, in series [13] (baseline), the “Body Weight (g) Start” value turned out to be 20.4 ± 0.9 g and the “Tumor volume (mm^3) Start” value is given as 150 ± 34 mm^3. In addition, in series [13] (by tumor weight), the “Inhibition rate (%)” value is on record as 66.3%.
